{"source": "paper PMC2424174", "about": "“Suppression of Tumor Growth and Angiogenesis by a Specific Antagonist of the Cell-Surface Expressed Nucleolin” (PLoS ONE, 2008)", "key": {"[1]": {"test_system": "MDA-MB-435 tumor-cell xenografts", "assay": "MDA-MB-435 xenograft in nude mice", "type": "in vivo, human", "conditions": "HB-19 5 mg/kg, intraperitoneal, 3 times/week, 8 weeks, n = 10", "method": "Figure 8 HB-19 inhibits tumor growth in the nude mice. (A) HB-19 inhibits the growth of MDA-MB-231 tumor-cell xenografts. Cells (2×10^6) were injected subcutaneously into the right flank of female nude mice. Two weeks later, mice with a palpable tumor of approximately 40 mm^3 in volume were randomly separated into three groups (n = 5) and were given peritumoral injections 3 times/week of 0.1 ml PBS alone (Control), HB-19 (5 mg/kg), or Tamoxifen (Tmx) 10 mg/kg) for 6 weeks. (B) HB-19 inhibits the growth of MDA-MB-435 tumor-cell xenografts. Cells (1×10^6) were injected in the mammary fat pad of female nude mice. Two weeks later, mice with a palpable tumor were randomly separated into three groups (n = 10) and were given intraperitoneal injections 3 times/week of 0.1 ml PBS alone (Control), HB-19 (5 mg/kg), or 5-fluouracil (5-FU, 40 mg/kg) for 8 weeks. At the end of each experiment (in A and B), mice were sacrificed and the tumors were excised and weighed. The results are presented as the mean weight ±standard deviation (±S.D.) obtained from the number of mice in each group. (C, D) Inhibition of tumor development in mice treated by intraperitoneal (i.p.) and subcutaneous (s.c.) administration of HB-19. MDA-MB-231 tumor bearing mice in three groups (n = 10) were treated with HB-19 (10 mg/kg) by i.p. or s.c. injections, 3 times/week for 28 days. […]"}, "[2]": {"test_system": "chick embryo chorioallantoic membrane", "assay": "Chick embryo chorioallantoic membrane (CAM) angiogenesis assay", "type": "in vivo, chicken", "conditions": "48 h; for relative percent inhibition of angiogenesis: total vessel length vs control, P<0.001, 15–20 eggs", "method": "Figure 7 Inhibition of in vivo angiogenesis by HB-19 in chick embryo chorioallantoic membrane (CAM) assay. Macroscopic observation of the angiogenic response induced by gelatin sponges (1 cm^2), soaked with 40 µl of PBS (Control) or 40 µl PBS containing HB-19 at concentrations of 10, 20 and 50 µM (corresponding to 0.4, 0.8 and 2 nmols of HB-19, respectively). After 48 h, CAMs were fixed and excised from the eggs . Photographs were taken and the total length of the vessels was measured using the Image PC image-analysis software (Scion Corporation, USA)[48]. Each sample was tested three times using 15–20 eggs for each data point. The relative percent inhibition (P<0.001) of angiogenesis compared to the control was 27, 36 and 51% in the presence of 0.4, 0.8 and 2 nmols of HB-19, respectively.\nLeghorn fertilized eggs (Pindos, Greece) were incubated for 4 days at 37°C. A window was then opened on the eggshell, exposing the CAM. The window was covered with sterile tape, and the eggs were returned to the incubator. On day 9 of embryo development, 20 µl of distilled water alone as a control or containing HB-19 was applied on a 1-cm2 area of the CAM inside a silicon ring. After 48 hours of incubation at 37°C, CAMs were fixed in situ with saline-buffered formalin, excised from the eggs, placed on slides, and left to dry in air. Photographs were taken and the total length of the vessels was measured as described."}}}
{"substance": "pseudo-tripeptide Lysψ(CH2N)-Pro-Arg coupled to a template (H2NLys-Lys-Lys-Gly-Pro-Lys-Glu-Lys-AhxCONH2) [HB-19, pseudopeptide presenting pentavalently the pseudo-tripeptide Lysψ(CH2N)-Pro-Arg coupled to a template]", "values": [{"measurement": "inhibition of tumor growth", "setting": "[1]", "value": 57, "unit": "%"}, {"measurement": "relative percent inhibition of angiogenesis", "setting": "[2]; 0.4 nmol HB-19 (10 µM, 40 µl)", "value": 27, "unit": "%"}, {"measurement": "relative percent inhibition of angiogenesis", "setting": "[2]; 0.8 nmol HB-19 (20 µM, 40 µl)", "value": 36, "unit": "%"}, {"measurement": "relative percent inhibition of angiogenesis", "setting": "[2]; 2 nmol HB-19 (50 µM, 40 µl)", "value": 51, "unit": "%"}, {"measurement": "blood vessel branching and development", "setting": "[2]; HB-19 10, 20 and 50 µM", "value": "impaired significantly blood vessel branching and development in a dose-dependent manner"}]}
